{
  "source": "paper PMC2700308",
  "about": "(Biochemistry, 2009)",
  "origin": "cited, not measured here",
  "test_system": "a protein",
  "conditions": "calorimetric; ref [33]",
  "data": [
    {"compound": "O=S(=O)(O)O", "note": "[sulfate]", "values": [
      {"measurement": "ΔH of binding of sulfate to a protein", "value": 4.3, "unit": "kcal/mol"}
    ]}
  ]
}
